Measurements taken from ChEMBL document CHEMBL1275518, “Low penetration of oseltamivir and its carboxylate into cerebrospinal fluid in healthy Japanese and Caucasian volunteers” (Antimicrob Agents Chemother, 2008).

Tests used:
[1] = Tmax in healthy adult plasma assessed as oseltamivir carboxylate at 150 mg, po administered as single dose by LC/MS analysis; type: ADME, organism-based; settings: human, in vivo
[2] = Tlast in healthy adult plasma assessed as oseltamivir carboxylate at 150 mg, po administered as single dose by LC/MS analysis; type: ADME, organism-based; settings: human, in vivo
[3] = Tmax in healthy adult CSF assessed as oseltamivir carboxylate at 150 mg, po administered as single dose by LC/MS analysis; type: ADME, organism-based, Cerebrospinal fluid; settings: human, in vivo
[4] = Cmax in healthy adult plasma at 150 mg, po administered as single dose by LC/MS analysis; type: ADME, organism-based; set-up: dose 150 mg, route oral; settings: human
[5] = Ratio of AUC (0 to last) in healthy adult CSF to AUC (0 to last) in healthy adult plasma at 150 mg, po administered as single dose; type: ADME, organism-based; settings: human
[6] = Tlast in healthy adult CSF at 150 mg, po administered as single dose by LC/MS analysis; type: ADME, organism-based, Cerebrospinal fluid; settings: human, in vivo
[7] = AUC (0 to last) in healthy adult plasma at 150 mg, po administered as single dose by LC/MS analysis; type: ADME, organism-based; set-up: dose 150 mg, time 0 - last, route oral; settings: human
[8] = Cmax in healthy adult plasma assessed as oseltamivir carboxylate at 150 mg, po administered as single dose by LC/MS analysis; type: ADME, organism-based; set-up: dose 150 mg, route oral; settings: human, in vivo
[9] = Tlast in healthy adult plasma at 150 mg, po administered as single dose by LC/MS analysis; type: ADME, organism-based; settings: human, in vivo
[10] = Apparent oral clearance in healthy adult plasma at 150 mg, po administered as single dose by LC/MS analysis; type: ADME, organism-based; settings: human
[11] = AUC (0 to last) in healthy adult plasma assessed as oseltamivir carboxylate at 150 mg, po administered as single dose by LC/MS analysis; type: ADME, organism-based; set-up: dose 150 mg, time 0 - last, route oral; settings: human, in vivo
[12] = Ratio of Cmax in healthy adult CSF to Cmax in healthy adult plasma at 150 mg, po administered as single dose; type: ADME, organism-based; settings: human
[13] = Cmax in healthy adult CSF at 150 mg, po administered as single dose by LC/MS analysis; type: ADME, organism-based, Cerebrospinal fluid; set-up: dose 150 mg, route oral; settings: human
[14] = Half life in healthy adult plasma at 150 mg, po administered as single dose by LC/MS analysis; type: ADME, organism-based; settings: human
[15] = Tmax in healthy adult CSF at 150 mg, po administered as single dose by LC/MS analysis; type: ADME, organism-based, Cerebrospinal fluid; settings: human
[16] = AUC (0 to infinity) in healthy adult plasma assessed as oseltamivir carboxylate at 150 mg, po administered as single dose by LC/MS analysis; type: ADME, organism-based; set-up: dose 150 mg, time infinity, route oral; settings: human, in vivo
[17] = Half life in healthy adult plasma assessed as oseltamivir carboxylate at 150 mg, po administered as single dose by LC/MS analysis; type: ADME, organism-based; settings: human, in vivo
[18] = AUC (0 to last) in healthy adult CSF at 150 mg, po administered as single dose by LC/MS analysis; type: ADME, organism-based; set-up: dose 150 mg, route oral, time 0 - last; settings: human
[19] = Tmax in healthy adult plasma at 150 mg, po administered as single dose by LC/MS analysis; type: ADME, organism-based; settings: human
[20] = Clast in healthy adult CSF assessed as oseltamivir carboxylate at 150 mg, po administered as single dose by LC/MS analysis; type: ADME, organism-based, Cerebrospinal fluid; settings: human, in vivo
[21] = Cmax in healthy adult CSF assessed as oseltamivir carboxylate at 150 mg, po administered as single dose by LC/MS analysis; type: ADME, organism-based, Cerebrospinal fluid; set-up: dose 150 mg, route oral; settings: human, in vivo
[22] = AUC (0 to last) in healthy adult CSF assessed as oseltamivir carboxylate at 150 mg, po administered as single dose by LC/MS analysis; type: ADME, organism-based, Plasma; set-up: dose 150 mg, route oral, time 0 - last; settings: human, in vivo
[23] = Clast in healthy adult CSF at 150 mg, po administered as single dose by LC/MS analysis; type: ADME, organism-based, Cerebrospinal fluid; settings: human, in vivo
[24] = Clast in healthy adult plasma at 150 mg, po administered as single dose by LC/MS analysis; type: ADME, organism-based; settings: human, in vivo
[25] = Ratio of AUC (0 to last) in healthy adult CSF to AUC (0 to last) in healthy adult plasma assessed as oseltamivir carboxylate at 150 mg, po administered as single dose; type: ADME, organism-based; settings: human
[26] = Tlast in healthy adult CSF assessed as oseltamivir carboxylate at 150 mg, po administered as single dose by LC/MS analysis; type: ADME, organism-based, Cerebrospinal fluid; settings: human, in vivo
[27] = Ratio of Cmax in healthy adult CSF to Cmax in healthy adult plasma assessed as oseltamivir carboxylate at 150 mg, po administered as single dose; type: ADME, organism-based; settings: human
[28] = AUC (0 to infinity) in healthy adult plasma at 150 mg, po administered as single dose by LC/MS analysis; type: ADME, organism-based; set-up: dose 150 mg, time infinity, route oral; settings: human
[29] = Clast in healthy adult plasma assessed as oseltamivir carboxylate at 150 mg, po administered as single dose by LC/MS analysis; type: ADME, organism-based; settings: human, in vivo

In the case of CCOC(=O)C1=C[C@@H](OC(CC)CC)[C@H](NC(C)=O)[C@@H](N)C1.O=P(O)(O)O [OSELTAMIVIR PHOSPHATE], the Tmax [1] is reported as 5 h, the Tlast [2] is reported as 24 h and the Tmax [3] is reported as 8 h. It also gave a Cmax [4] of 115 ng/mL, a Kp [5] of 2.4% and a Tlast [6] of 5.5 h. It also gave an AUC(0-t) [7] of 308 ng·h/mL, a Cmax [8] of 544 ng/mL and a Tlast [9] of 10.5 h. The CL/F [10] was 8370 mL/min, the AUC [11] was 5540 ng·h/mL and the Kp [12] was 2.1%. For the same molecule, the Cmax [13] was 2.4 ng/mL, the half-life [14] was 108 min and the Tmax [15] was 3.5 h. It also gave an AUC [16] of 5950 ng·h/mL, a t1/2 [17] of 5.4 h and an AUC(0-t) [18] of 7.6 ng·h/mL. The Tmax [19] was 1 h, the Clast [20] was 14.5 ng/mL and the Cmax [21] was 19 ng/mL. It also gave an AUC [22] of 157 ng·h/mL, a Clast [23] of 1.4 ng/mL and a Clast [24] of 2.1 ng/mL. It also gave a Ratio AUC [25] of 2.9%, a Tlast [26] of 12 h and a Ratio [27] of 3.5%. For the same molecule, the AUC(0-inf) [28] was 313 ng·h/mL and the Clast [29] was 50.2 ng/mL.
